Two compounds from ChEMBL document CHEMBL1151632, “15-Deacetylsergeolide, a potent antileukemic quassinoid from Picrolemma pseudocoffea” (1984) can be followed below.

The subject of assay [1] is P388. Kind of assay: In vivo cytotoxicity against mouse P388 cells at 0.63 mg/kg relative to control. It counts as functional.
Assay [2] relates to P388. Kind of assay: In vivo cytotoxicity against mouse P388 cells at 1.25 mg/kg relative to control. It counts as functional.

In the case of `COC(=O)[C@]12OC[C@]34[C@H]([C@@H](O)[C@@H]1O)[C@@]1(C)C=C5OC(=O)C=C5[C@@H](C)[C@@H]1C[C@H]3OC(=O)[C@H](O)[C@@H]24` [DEACETYLSERGEOLIDE], in assay [1], the T/C was 150%. In the case of `COC(=O)[C@]12OC[C@]34[C@H]([C@@H](O)[C@@H]1O)[C@@]1(C)C=C5OC(=O)C=C5[C@@H](C)[C@@H]1C[C@H]3OC(=O)[C@H](OC(C)=O)[C@@H]24` [SERGEOLIDE], in assay [2], the T/C is given as 169%.

For orientation: T/C means the result in the treated group divided by that in the control group, in per cent.
